# From patent US20220389003A1, “4-SUBSTITUTED INDOLE AND INDAZOLE SULFONAMIDO DERIVATIVES AS PARG INHIBITORS” (IDEAYA BIOSCIENCES, INC., priority 2019, published 2022)
# Assays:
# PARG [1] = biological target: T1, PARG (Homo sapiens, UniProt Q86W56); experiment: Inhibition of PARG enzymatic assay (TR-FRET enzymatic IC50 assay); format: biochemical; parameters: purchased Peak Proteins; conditions: hPARG 250 pM, biotinylated-PARylated PARP substrate 30 nM
# Procedure: PARG enzyme was incubated with compound or vehicle (DMSO) and the biotinylated-PARylated PARP substrate in a microtiter plate. After adding detection antibody and streptavidin-europium, and then incubating, the plate was read for fluorescence intensity. The low control (DMSO) with low fluorescence intensity represents no inhibition of enzymatic reaction while the high control (no enzyme) with high fluorescence intensity represents full inhibition of enzymatic reaction.
# • PARG • hPARG: 250 pM, His-tagged, Peak Proteins, 0.96 mg/mL (8.58 μM) • Substrate: 30 nM • Reaction time: 70 minutes • Substrate: hPARP1, His- and TEV-tagged, Peak Proteins, 14 μM • Detection Antibody: anti-His monoclonal antibody-ULight, Perkin Elmer catalog #TRF0105-M • Streptavidin-Europium: Perkin Elmer catalog #AD0062 • Assay buffer: 50 mM Tris-HCl pH 7.4, 50 mM KCl, 3 mM EDTA, 0.4 mM EGTA, 1 mM DTT, 0.01% Tween 20, 0.01% BSA • Temperature: 23° C. • Total volume: 20 μL
# • 0% inhibition control: DMSO • 100% inhibition control: No enzyme
# • 1. Transfer 5 μL of 3× final concentration of test compounds or DMSO to the appropriate wells of a microtiter plate. • 2. Centrifuge the plate at 1000 rpm for 1 minute. • 3. Transfer 5 μL of 3× final concentration of enzyme in assay buffer or assay buffer alone to the appropriate wells. • 4. Centrifuge the plate at 1000 rpm for 1 minute. • 5. Incubate the plate at room temperature for 1 hour. • 6. Transfer 5 μL of 3× substrate in assay buffer to all the test wells. • 7. Centrifuge the plate at 1000 rpm for 1 minute. • 8. Incubate the plate at room temperature for 10 minutes. • 9. Transfer 5 μL of 3× mixture of detection antibody and streptavidin-europium in assay buffer to all the test wells. • 10. Centrifuge the plate at 1000 rpm for 1 minute. • 11. Incubate the plate at room temperature for 1 hour. • 12. Read the plate on a plate reader (e.g., Infinite M1000).
# PARG [2] = biological target: T1, PARG; experiment: Inhibition of PARG cellular assay (PAR foci in HeLa cells after MMS); format: cell-based; parameters: endogenous in cells; host or cells: HeLa; conditions: compound 1 h then MMS 1 h
# Procedure: The ability of the compounds disclosed herein to inhibit PARG was determined as described below. Briefly, after treating HeLa cells with the compounds of the disclosure for 1 h, followed by treatment with DNA alkylating agent methylmethanesulfonate (MMS) for an additional 1 h, the cells were fixed in 3.7% formaldehyde. The cells were permeabilized in 0.5% Triton-X100, blocked in 5% goat serum, and incubated with mouse monoclonal antibody against poly (ADP) ribose (PAR) polymer overnight at 4° C. The cells were washed and incubated with an Alexafluor 488-linked secondary antibody together with a nuclear stain (Hoechst 33342) for an hour at room temperature. After washing, images of the cells were captured and analyzed on a high content imaging microscope and software. Two measurement of PAR chain were quantified with the mean intensity over background of the nuclear foci (fluorescent signal at 488 nm range 0.3-2.0 μm foci) quantified as PAR foci (PAR Foci IC50). The cells with a PAR foci signal >1.3 was considered as positive (PAR % positive IC50), and the percentage positive cells are quantified.
# T1 sequence (Q86W56 whole entry): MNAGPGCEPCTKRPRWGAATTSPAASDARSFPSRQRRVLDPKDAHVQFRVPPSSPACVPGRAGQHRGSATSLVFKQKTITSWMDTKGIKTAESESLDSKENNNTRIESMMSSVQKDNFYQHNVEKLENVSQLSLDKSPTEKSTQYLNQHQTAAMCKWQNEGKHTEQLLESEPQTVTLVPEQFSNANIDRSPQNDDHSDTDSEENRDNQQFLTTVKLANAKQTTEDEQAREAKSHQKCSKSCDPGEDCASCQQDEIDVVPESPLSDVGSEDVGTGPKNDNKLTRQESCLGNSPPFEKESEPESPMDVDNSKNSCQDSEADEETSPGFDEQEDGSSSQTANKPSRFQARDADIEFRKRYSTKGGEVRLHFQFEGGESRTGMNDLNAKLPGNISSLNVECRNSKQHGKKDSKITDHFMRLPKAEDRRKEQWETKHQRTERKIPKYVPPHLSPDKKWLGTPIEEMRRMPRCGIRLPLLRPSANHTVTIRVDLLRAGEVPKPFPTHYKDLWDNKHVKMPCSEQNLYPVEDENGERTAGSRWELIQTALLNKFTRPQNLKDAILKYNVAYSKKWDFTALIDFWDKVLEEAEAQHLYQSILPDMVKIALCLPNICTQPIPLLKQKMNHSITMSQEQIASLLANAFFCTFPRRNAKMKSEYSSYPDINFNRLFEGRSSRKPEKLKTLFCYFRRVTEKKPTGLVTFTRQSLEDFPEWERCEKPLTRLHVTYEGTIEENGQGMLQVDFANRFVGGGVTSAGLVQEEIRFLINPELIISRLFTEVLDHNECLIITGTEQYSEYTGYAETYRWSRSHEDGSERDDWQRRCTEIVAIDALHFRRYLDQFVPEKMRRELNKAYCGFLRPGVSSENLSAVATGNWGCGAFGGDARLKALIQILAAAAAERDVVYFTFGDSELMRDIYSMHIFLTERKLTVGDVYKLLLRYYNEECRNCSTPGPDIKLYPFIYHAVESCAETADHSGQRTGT
SMILES,IC50 (PARG [1]),IC50 (PARG [2])
"N#CC1(NS(=O)(=O)c2cc(N3CCCC3)c3cnn(-c4nnc(C(F)F)s4)c3c2)CC1 [Example 101, 1-[({1-[5-(difluoromethyl)(1,3,4-thiadiazol-2-yl)]-4-pyrrolidinyl-1H-indazol-6-yl}sulfonyl)amino]cyclopropanecarbonitrile]",1 to 10 µM,1 to 10 µM
"COc1cc(-c2cc(S(=O)(=O)NC3(C#N)CC3)cc3c2cnn3-c2nnc(C(F)F)s2)ncn1 [Example 22, 1-[({1-[5-(difluoromethyl)(1,3,4-thiadiazol-2-yl)]-4-(6-methoxypyrimidin-4-yl)-1H-indazol-6-yl}sulfonyl)amino]cyclopropanecarbonitrile]",–,0.3 to 1 µM
"N#CC1(NS(=O)(=O)c2cc(N3CCC(F)(F)CC3)c3cnn(-c4nnc(C(F)F)s4)c3c2)CC1 [Example 105, 1-[({1-[5-(difluoromethyl)(1,3,4-thiadiazol-2-yl)]-4-(4,4-difluoropiperidyl)-1H-indazol-6-yl}sulfonyl)amino]cyclopropanecarbonitrile]",1 to 10 µM,0.3 to 1 µM
"Cn1cnc(-c2cc(S(=O)(=O)NC3(C#N)CC3)cc3c2cnn3-c2nnc(C(F)F)s2)c1 [Example 12, 1-[({1-[5-(difluoromethyl)(1,3,4-thiadiazol-2-yl)]-4-(1-methylimidazol-4-yl)-1H-indazol-6-yl}sulfonyl)amino]cyclopropanecarbonitrile]",0.3 to 1 µM,0.3 to 1 µM
"COc1nccc(-c2cc(S(=O)(=O)NC3(C(N)=O)CC3)cc3c2cnn3-c2nnc(C(F)F)s2)n1 [Example 20, 1-[({1-[5-(difluoromethyl)(1,3,4-thiadiazol-2-yl)]-4-(2-methoxypyrimidin-4-yl)-1H-indazol-6-yl}sulfonyl)amino]cyclopropanecarboxamide]",0.3 to 1 µM,1 to 10 µM
"N#CC1(NS(=O)(=O)c2cc(N3CCCC4(COC4)C3)c3cnn(-c4nnc(C(F)F)s4)c3c2)CC1 [Example 65, 1-[({1-[5-(difluoromethyl)(1,3,4-thiadiazol-2-yl)]-4-(2-oxa-6-azaspiro[3.5]non-6-yl)-1H-indazol-6-yl}sulfonyl)amino]cyclopropanecarbonitrile]",0.3 to 1 µM,–
"N#CC1(NS(=O)(=O)c2cc(N3CCCOCC3)c3cnn(-c4nnc(C(F)F)s4)c3c2)CC1 [Example 42, 1-[({1-[5-(difluoromethyl)(1,3,4-thiadiazol-2-yl)]-4-(1,4-oxazaperhydroepin-4-yl)-1H-indazol-6-yl}sulfonyl)amino]cyclopropanecarbonitrile]",1 to 10 µM,–
"N#CC1(NS(=O)(=O)c2cc(-c3c[nH]cn3)c3cnn(-c4nnc(C(F)F)s4)c3c2)CC1 [Example 9, 1-[({1-[5-(difluoromethyl)(1,3,4-thiadiazol-2-yl)]-4-imidazol-4-yl-1H-indazol-6-yl}sulfonyl)amino]cyclopropanecarbonitrile]",0.3 to 1 µM,1 to 10 µM
"N#CC1(NS(=O)(=O)c2cc(N3CCC4(CCOCC4)CC3)c3cnn(-c4nnc(C(F)F)s4)c3c2)CC1 [Example 30, 1-[({1-[5-(difluoromethyl)(1,3,4-thiadiazol-2-yl)]-4-(9-oxa-3-azaspiro[5.5]undec-3-yl)-1H-indazol-6-yl}sulfonyl)amino]cyclopropanecarbonitrile]",0.3 to 1 µM,1 to 10 µM
"N#CC1(NS(=O)(=O)c2cc(-c3cccnc3)c3cnn(-c4nnc(C(F)F)s4)c3c2)CC1 [Example 17, 1-[({1-[5-(difluoromethyl)(1,3,4-thiadiazol-2-yl)]-4-(3-pyridyl)-1H-indazol-6-yl}sulfonyl)amino]cyclopropanecarbonitrile]",0.3 to 1 µM,1 to 10 µM
"N#CC1(NS(=O)(=O)c2cc(-c3cscn3)c3cnn(-c4nnc(C(F)F)s4)c3c2)CC1 [Example 13, 1-[({1-[5-(difluoromethyl)(1,3,4-thiadiazol-2-yl)]-4-(1,3-thiazol-4-yl)-1H-indazol-6-yl}sulfonyl)amino]cyclopropanecarbonitrile]",0.3 to 1 µM,0.3 to 1 µM
"COc1cc(-c2cc(S(=O)(=O)NC3(C(N)=O)CC3)cc3c2cnn3-c2nnc(C(F)F)s2)ncn1 [Example 19, 1-[({1-[5-(difluoromethyl)(1,3,4-thiadiazol-2-yl)]-4-(6-methoxypyrimidin-4-yl)-1H-indazol-6-yl}sulfonyl)amino]cyclopropanecarboxamide]",0.3 to 1 µM,1 to 10 µM

# Next, values leading:
IC50 (PARG [1]),IC50 (PARG [2]),SMILES
0.3 to 1 µM,–,"CN(C)C(=O)C1CN(c2cc(S(=O)(=O)NC3(C#N)CC3)cc3c2cnn3-c2nnc(C(F)F)s2)C1 [Example 55, [1-(1-[5-(difluoromethyl)(1,3,4-thiadiazol-2-yl)]-6-{[(cyanocyclopropyl)amino]sulfonyl}(1H-indazol-4-yl))azetidin-3-yl]-N,N-dimethylcarboxamide]"
0.1 to 0.3 µM,0.3 to 1 µM,"N#CC1(NS(=O)(=O)c2cc(N3CCC4(CCOC4)CC3)c3cnn(-c4nnc(C(F)F)s4)c3c2)CC1 [Example 29, 1-[({1-[5-(difluoromethyl)(1,3,4-thiadiazol-2-yl)]-4-(2-oxa-8-azaspiro[4.5]dec-8-yl)-1H-indazol-6-yl}sulfonyl)amino]cyclopropanecarbonitrile]"
≤ 0.1 µM,–,"N#CC1(NS(=O)(=O)c2cc(N3CCN4C(=O)OC[C@@H]4C3)c3cnn(-c4nnc(C(F)F)s4)c3c2)CC1 [Example 62, 1-[({4-((1S)-7-oxo-8-oxa-3,6-diazabicyclo[4.3.0]non-3-yl)-1-[5-(difluoromethyl) (1,3,4-thiadiazol-2-yl)]-1H-indazol-6-yl}sulfonyl)amino]cyclopropanecarbonitrile]"
0.1 to 0.3 µM,1 to 10 µM,"N#CC1(NS(=O)(=O)c2cc(-c3cccnn3)c3cnn(-c4nnc(C(F)F)s4)c3c2)CC1 [Example 11, 1-[({1-[5-(difluoromethyl)(1,3,4-thiadiazol-2-yl)]-4-pyridazin-3-yl-1H-indazol-6-yl}sulfonyl)amino]cyclopropanecarbonitrile]"
0.1 to 0.3 µM,0.3 to 1 µM,"CN1CCN(c2cc(S(=O)(=O)NC3(C#N)CC3)cc3c2cnn3-c2nnc(C(F)F)s2)CC1 [Example 102, 1-[({1-[5-(difluoromethyl)(1,3,4-thiadiazol-2-yl)]-4-(4-methylpiperazinyl)-1H-indazol-6-yl}sulfonyl)amino]cyclopropanecarbonitrile]"
0.1 to 0.3 µM,1 to 10 µM,"N#CC1(NS(=O)(=O)c2cc(-c3ccncc3)c3cnn(-c4nnc(C(F)F)s4)c3c2)CC1 [Example 16, 1-[({1-[5-(difluoromethyl)(1,3,4-thiadiazol-2-yl)]-4-(4-pyridyl)-1H-indazol-6-yl}sulfonyl)amino]cyclopropanecarbonitrile]"
0.1 to 0.3 µM,1 to 10 µM,"N#CC1(NS(=O)(=O)c2cc(-c3ccnnc3)c3cnn(-c4nnc(C(F)F)s4)c3c2)CC1 [Example 10, 1-[({1-[5-(difluoromethyl)(1,3,4-thiadiazol-2-yl)]-4-pyridazin-4-yl-1H-indazol-6-yl}sulfonyl)amino]cyclopropanecarbonitrile]"
0.1 to 0.3 µM,1 to 10 µM,"N#CC1(NS(=O)(=O)c2cc(-c3cnccn3)c3cnn(-c4nnc(C(F)F)s4)c3c2)CC1 [Example 18, 1-[({1-[5-(difluoromethyl)(1,3,4-thiadiazol-2-yl)]-4-pyrazin-2-yl-1H-indazol-6-yl}sulfonyl)amino]cyclopropanecarbonitrile]"
0.1 to 0.3 µM,–,"CN(C)C(=O)N1CCCN(c2cc(S(=O)(=O)NC3(C#N)CC3)cc3c2cnn3-c2nnc(C(F)F)s2)CC1 [Example 78, [4-(1-[5-(difluoromethyl)(1,3,4-thiadiazol-2-yl)]-6-{[(cyanocyclopropyl)amino]-sulfonyl}(1H-indazol-4-yl))(1,4-diazaperhydroepinyl)]-N,N-dimethylcarboxamide]"
0.1 to 0.3 µM,–,"N#CC1(NS(=O)(=O)c2cc(N3CC4COCC(C3)N4)c3cnn(-c4nnc(C(F)F)s4)c3c2)CC1 [Example 70, 1-[({1-[5-(difluoromethyl)(1,3,4-thiadiazol-2-yl)]-4-(7-oxa-3,9-diazabicyclo-[3.3.1]non-3-yl)-1H-indazol-6-yl}sulfonyl)amino]cyclopropanecarbonitrile]"
